# From PubChem BioAssay AID720578 (The Scripps Research Institute Molecular Screening Center, 2013)
# pIC50: −log10 of the molar value. Activity calls are given as the source filed them. No rule for the calls is given here.
# Target: Crimean-Congo hemorrhagic fever virus L protein viral ovarian tumor (vOTU) protease domain
# Assay: CCHFV vOTU protease inhibitor potency, dose response, biochemical, fluorescence, Pep-AMC substrate (AID 720578)
# Details: recombinant CCHFV vOTU, Pep-AMC fluorescence cleavage
Structure (SMILES),pIC50,IC50
CCOc1ccc(NC(=S)Nc2ccc3nsnc3c2)cc1,5.12,
C[n+]1c(-c2ccccc2)c2cc(N)ccc2c2ccc(N)cc21,5.43,
O=C(O)c1cccc(NC2=C(N3CCOCC3)C(=O)c3ccccc3C2=O)c1,,inactive
Cc1ccc(NC2=CC(=O)C(=O)c3ccccc32)cc1,5.15,
CC1(OC(=O)C2CCCC2)C(=O)C=C2C=C(c3ccsc3)N(CCCCO)C=C2C1=O (stereo not given),,inactive
C[n+]1cccc2cccc([O-])c21,5.19,
O=C1C=C(N2CCCCC2)c2ccccc2C1=O,5.11,
CCCNC1=C(N(C(C)=O)c2cccc(F)c2)C(=O)c2ccccc2C1=O,,inactive
CC1COCC(C)N1C1=C(Cl)C(=O)c2ccccc2C1=O (stereo not given),5.30,
O=C1C(=O)c2cccnc2-c2ncccc21,5.27,
CCC(COC)Oc1cc(NCc2ccccc2)c2ncn(C(C)C)c2c1 (stereo not given),5.27,
Cc1cccc(NC(=O)c2sc3nc4c(c(-c5cccs5)c3c2N)CN(C)CC4)c1,,inactive
Oc1ccccc1CNc1cccc2cccnc12,5.00,
CCN(CC)CCCC(C)n1c2nc(=O)[nH]c(=O)c-2nc2cc(Cl)ccc21 (stereo not given),5.60,
COCCN1C=C2C(=O)C(C)(OC(=O)C3CCCC3)C(=O)C(c3ccccc3)=C2C=C1CCCC(=O)OC (stereo not given),,inactive
CN(C)S(=O)(=O)c1cccc(NC(=S)Nc2cccc3cnccc23)c1,,inactive
c1coc(-c2nnc(-c3ccco3)nn2)c1,5.03,
O=C(NC(=S)Nc1ccccc1N1CCCC1)c1ccccc1Br,,inactive
CC(=O)N(/N=C1\Sc2ccccc2C1=O)c1cccc(C)c1,,inactive
CC(NC1=CC(=O)c2cccnc2C1=O)C(O)c1ccccc1 (stereo not given),5.71,
CC(=O)N(/N=C1\Sc2ccccc2C1=O)c1ccccc1C,,inactive
COc1ccccc1NC(=O)COC(=O)c1ccc([N+](=O)[O-])s1,5.00,

Structure (SMILES),pIC50,IC50
C=CCN(CC=C)C(=S)Nc1ccc2nsnc2c1,,inactive
O=C(O)CCCNc1cc(N2CCN(C(=O)c3ccco3)CC2)c2noc3c2c1C(=O)c1ccccc1-3,5.24,
CC(=O)[C@@H]1[C@@H]2C(=O)N(c3ccc(F)c(Cl)c3)C(=O)[C@@H]2C2c3ccccc3C=CN21 (stereo not given in full),,inactive
Cc1oc2c(c1C(=O)O)C(=O)c1ccccc1C2=O,5.04,
O=C(O)CSc1cc(NS(=O)(=O)c2ccc(Cl)cc2)c2ccccc2c1O,5.30,
CCc1cc[n+](C2=C([O-])c3ccccc3C(=O)/C2=N\S(=O)(=O)c2cccs2)cc1,5.36,
CN(C)c1ccc(C=c2c3cc(O)ccc3n3c2cc(-c2ccccc2)[n+]3C)cc1,,inactive
O=C(NC(=S)Nc1ccccc1N1CCCC1)c1cccs1,,inactive
CCn1nc(/C=C/c2ccccc2)nc2c(=O)n(C)c(=O)nc1-2,6.56,
CC1CCCC(NC(=O)COC(=O)c2ccc([N+](=O)[O-])s2)C1C (stereo not given),5.04,
O=C(NC1=CC(=O)c2ccccc2C1=O)c1ccccc1,5.41,
Nc1scc2c(C(=O)N/N=C/c3ccc(Cl)cc3)nn(-c3ccccc3)c(=O)c12,,inactive
O=C1C=C(N2CC2)c2ccccc2C1=O,5.56,
COc1ccccc1Nc1cc2cc(Br)ccc2c(=O)[nH]1,5.98,
Cc1nc2c(o1)C(=O)c1ccccc1C2=Nc1ccccc1,5.10,
CC(=O)c1ccc(NC(=S)Nc2cccc3cnccc23)cc1,5.17,
Cc1ccc(Cl)cc1NC1=C/C(=N\S(=O)(=O)c2cccs2)c2ccccc2C1=O,6.10,
O=C1C(N2CCOCC2)=C(n2nnc3ccccc32)C(=O)c2ccccc21,5.57,
O=C(NCCCO)c1ccc2nc(-c3ccco3)c(-c3ccco3)nc2c1,5.02,
COc1cc(Br)c(C(=O)c2nccc3cc(OC)c(OC)cc23)cc1OC,6.57,
O=C(NC1=C(NC2CCS(=O)(=O)C2)C(=O)c2ccccc2C1=O)c1ccccc1 (stereo not given),5.41,
O=C1NNC(c2ccccc2)=N/C1=C\c1ccccc1Cl,,inactive

Structure (SMILES),pIC50,IC50
CCC(C)n1c(NC(=O)c2ccccc2)c(C#N)c2nc3ccccc3nc21 (stereo not given),5.05,
O=C1Cc2ccccc2C(=O)N1Cc1ccccc1,5.89,
O=C1Nc2ccc([N+](=O)[O-])cc2C1=Nc1cccc(CO)c1,5.06,
O=C(O)c1cccc(NC2=C(n3nnc4ccccc43)C(=O)c3ccccc3C2=O)c1,5.32,
CCCCn1c(NS(=O)(=O)c2ccccc2)c(C(=O)OCC)c2nc3ccccc3nc21,,> 115 µM (inactive)
CN(C1=C(NC(=O)c2ccccc2)C(=O)c2ccccc2C1=O)C1CCS(=O)(=O)C1 (stereo not given),5.61,
O=C1C(Nc2ccccc2)=C(N2CCCCC2)C(=O)c2ccccc21,5.34,
Cc1ccc(NC2=C(N3CCCCC3)C(=O)c3ccccc3C2=O)cc1,5.35,
NC(=S)N=Nc1c(O)cc(O)c2[nH]c(=O)ccc12,5.01,
CCOC(=O)c1c(C)[nH]c2c1-c1ccccc1C(=O)C2=O,6.49,
O=C(OCc1nnc(-c2ccccc2)o1)c1ccc([N+](=O)[O-])s1,5.12,
O=C1C(=NO)CCc2ccccc21,5.47,
CCOc1ccc2noc3c2c1C(=O)c1ccccc1-3,,inactive
O=C(/C=C/c1ccc(O)cc1)c1ccc(NC2=C(N3CCCCC3)C(=O)c3ccccc3C2=O)cc1,5.48,
C=CCN1C=CC(=C/C=C(/C#N)C(=O)OCC)C=C1,,inactive
Clc1ccc(C2=CSC3=Nc4cccc5cccc(c45)N23)cc1,,inactive
O=C(COC(=O)c1ccc([N+](=O)[O-])s1)NCc1ccc(F)cc1,5.09,
O=C1C(Cl)=C(NCCCO)C(=O)c2ccccc21,,inactive
N#CC1=C(S)N(c2ccccc2)C(c2ccc(-c3ccc(Cl)c(Cl)c3)o2)NC1=O (stereo not given),,inactive
CCCCCCCCN1C(=O)[C@@H](CC(=O)NCCCOCCCC)C[C@@]2(C(=O)OC)C1=C[C@H](C(C)C)O[C@@H]2C1CC1,,inactive
O=[N+]([O-])c1c(Nc2ccccn2)cc(Cl)c2nonc12,,inactive
CC(=O)c1ccc(NC2=C(N3CCOCC3)C(=O)c3ccccc3C2=O)cc1,,inactive

Structure (SMILES),pIC50,IC50
O=C(c1ccccc1)c1coc2c1C(=O)c1ccccc1C2=O,5.18,
NC1=C(Cl)C(=O)c2ccc(S(N)(=O)=O)cc2C1=O,6.90,
Cc1ccc(N2C(=O)[C@@H]3[C@H](C2=O)C2c4ccccc4C=CN2[C@@H]3C(=O)c2ccco2)cc1 (stereo not given in full),5.38,
O=c1[nH]c(=S)[nH]c2c1C(c1ccc(Br)cc1)c1c([nH]c(=S)[nH]c1=O)O2,,inactive
Cn1c2ccccc2c2cc(/C=N/NC(=O)c3cc(O)ccc3O)ccc21,5.04,
CCOC(=O)C1=C(COC(=O)c2ccc([N+](=O)[O-])s2)NC(=O)NC1C (stereo not given),5.11,
O=[N+]([O-])c1ccccc1-c1ccc(C(=S)N2CCCC2)o1,,inactive
Cc1c(C=O)c(Cl)n(C)c(=O)c1C#N,,inactive
CCCCCCCCCCCCCCCC[n+]1cccc2ccccc21,,inactive
S=C(Nc1ccc(Cl)cc1)Nc1cccc2cnccc12,5.19,
O=C(O)c1ccc(NC2=C/C(=N/S(=O)(=O)c3cccs3)c3ccccc3C2=O)cc1,6.42,
CN1CCN(C2=C(Cl)C(=O)c3ccccc3C2=O)CC1,6.56,
COc1ccc(S(=O)(=O)/N=C2\C=C(Nc3ccc(O)cc3)C(=O)c3ccccc32)cc1,6.43,
COc1ccc(N2C(=O)[C@@H]3[C@H](C2=O)[C@H]2c4ccccc4C=CN2[C@@H]3C(C)=O)cc1,,inactive
O=C(COC(=O)c1ccc([N+](=O)[O-])s1)Nc1ncc(C(F)(F)F)cc1Cl,5.05,
Cc1cnc(C2OCCO2)c2cccc(N)c12,5.59,
Nc1ccc(N2CCCCC2)c2nonc12,,inactive
CCCCCCCCCCCCN1[C@@H](CC(=O)O)c2cc(F)ccc2S1(=O)=O,,inactive
COC1=CC(=O)c2c(ccc3ncnc(N)c23)C1=O,6.40,
O=c1[nH]c(Nc2ccccc2)cc2cc(Br)ccc12,6.00,
C[n+]1c2ccccc2nc2ccc(NCCO)cc21,5.22,
O=C(NC(=S)Nc1ccccc1N1CCCC1)c1ccc(F)cc1,,inactive

Structure (SMILES),pIC50,IC50
COc1cc(C=c2c3ccccc3n3c2cc(-c2ccccc2)[n+]3C)cc(OC)c1OC,5.17,
O=C(O)c1ccc(S(=O)(=O)/N=C2\C=C(Nc3ccccc3F)C(=O)c3ccccc32)cc1,6.40,
CCOC(=O)c1cc2c(ccn2C)n1Cc1ccccc1C,,> 115 µM (inactive)
O=C(O)CSc1cc(NS(=O)(=O)c2cccc([N+](=O)[O-])c2)c2ccccc2c1O,5.61,
Cc1ccc(NC2=C(N3CCOCC3)C(=O)c3ccccc3C2=O)cc1,5.37,
NC1=C(Br)C(=O)c2ncccc2C1=O,6.36,
CC(=O)N(C1=C(Cl)C(=O)c2ccccc2C1=O)C1CCCCC1,5.45,
CCCCn1c(NS(=O)(=O)c2ccccc2)c(S(=O)(=O)c2ccc(C)cc2)c2nc3ccccc3nc21,,> 115 µM (inactive)
COc1ccc2noc3c2c1C(=O)c1ccccc1-3,5.51,
Cc1cc(C)c(S(=O)(=O)/N=C2\C=C(Nc3ccc(C(=O)O)cc3)C(=O)c3ccccc32)c(C)c1,5.76,
Cc1cnc(C=NNC(N)=S)c2cccc(N)c12,5.53,
NS(=O)(=O)c1ccc(NC2=CC(=O)C(=O)c3ccccc32)cc1,5.31,
CC(=O)N(C1=C(N)C(=O)c2ccccc2C1=O)c1ccccc1,5.08,
CCOCCCNC1=C(Cl)C(=O)c2ccccc2C1=O,,inactive
COc1ccc(C(C[N+](=O)[O-])c2c(C)[nH]n(-c3ccccc3)c2=O)cc1 (stereo not given),,inactive
Cc1ccc(S(=O)(=O)/N=C2\C=C(Nc3cccc(C(=O)O)c3)C(=O)c3ccccc32)cc1,6.11,
CC(=O)N(C)c1ccc(N=Cc2cc3c(cc2[N+](=O)[O-])OCO3)cc1,,inactive
CN1CCC/C1=C/C=C1\SC(=S)NC1=O,,inactive
C[n+]1c(-c2ccccc2)cc2c(=Cc3ccc([N+](=O)[O-])cc3)c3ccccc3n21,,inactive
CC(=O)[C@H]1[C@@H]2C(=O)N(c3cccc(Cl)c3)C(=O)[C@@H]2[C@H]2c3ccccc3C=CN21,,inactive
Cc1ccccc1NC1=C/C(=N\S(=O)(=O)c2cccs2)c2ccccc2C1=O,6.60,
O=[N+]([O-])c1cc(O)c2ncccc2c1,,inactive
